The source of these data is patent publication US20210299101A1, “SYSTEMS, METHODS, AND KITS FOR DIAGNOSTICS AND TREATMENT OF VIRAL RESPIRATORY INFECTION” (priority 2020, published 2021).

Assay [1] concerns furin. To be noted: human hepatoma cell lines (Chen et al. 2008); cited from earlier work.
Assay [2] has as its system SARS-CoV-2. The experiment in a line: Example 3: double-blinded placebo controlled prophylaxis study in male health care workers, SARS-CoV-2 test at day 28. Format: in vivo, human. Particulars: 750 mg/day oral, of 18 male health care workers negative at baseline (placebo 3 of 10).
Assay [3] concerns SARS-CoV-2. The experiment in a line: Example 4: double-blinded placebo controlled study in hospitalized male SARS-CoV-2 patients, survival. To be noted: following 15 days of treatment; 160 mg qd; 15 hospitalized male patients (control group 7%). In kind it is in vivo, human. As to the method: 15 subjects were assigned to enzalutamide treatment 160 mg qd. The other 15 subjects received standard treatment. Following 15 days of treatment, 20% of the subjects in the enzalutamide survived while 7% of the control group survived.

For assay [4], the system named is SARS-CoV-2. As to the kind of experiment: Example 2: double-blinded placebo controlled prophylaxis study in health care workers, SARS-CoV-2 test at day 28. Particulars: 10 mg/Kg/day oral, of 50 male and female health care workers negative at baseline (placebo 9 of 47).
Protocol: Example 2: A double-blinded placebo controlled study was conducted on 97 male and female health care workers working at two hospital emergency room departments.
At baseline, all subjects were tested negative for SARS-CoV-2 infection. […] The reminder 47 subjects were given a placebo oral pill. At day 28 all subjects were tested for SARS-CoV-2 infection.
Assay [5] concerns SARS-CoV-2. Format: in vivo, human. Particulars: 3 admitted patients (standard care 4.0). As to the method:
Example 19: A controlled study was conducted on 90 male patients with average age of 51 years old. […] The treatment arm was prescribed nilutamide (300 mg) orally once daily at the start of the trial, the control arm received standard care.
The patients BCRSS score was 1.3.

The test system of assay [6] is SARS-CoV-2. As to the kind of experiment: Example 21: double-blinded placebo controlled study in hospitalized male SARS-CoV-2 patients, survival at day 14. In kind it is in vivo, human. To be noted: following 14 days of treatment; 80 mg qd; 15 hospitalized male patients, score 4-6 on 8 point COVID-19 ordinal scale (control group 55%). The procedure: The primary outcome was survival at day 14.
15 subjects were assigned to HC-1119 treatment 80 mg qd. The other 15 subjects received standard treatment+HC-1119 placebo.

Assay [7] concerns SARS-CoV-2. As to the kind of experiment: Example 22: double-blinded placebo controlled study in hospitalized female SARS-CoV-2 patients, survival. Format: in vivo, human. Particulars: following 14 days of treatment; 80 mg qd; 15 hospitalized female patients, score 4-6 on 8 point COVID-19 ordinal scale (control group 67%). As to the method:
The patients were taking birth control and agreed not to engage in unprotected sex for at least 90 days post last dosing. None of the women were lactating.
15 subjects were assigned to HC-1119 treatment 80 mg qd. The other 13 subjects received standard treatment+HC-1119 placebo.

Assay [8] concerns SARS-CoV-2. As to the kind of experiment: Example 23: open label study in hospitalized male and female SARS-CoV-2 patients, survival. Format: in vivo, human. Particulars: average of 28 days of treatment; 80 mg qd; 31 hospitalized male and female patients, score 6 on 8 point COVID-19 ordinal scale (subjects not in study 3%).
Assay [9] concerns SARS-CoV-2. As to the kind of experiment: Example 24: double-blinded placebo controlled study in COVID-19 outpatients, rate of hospitalization at day 14. In kind it is in vivo, human. To be noted: following 14 days of treatment; 80 mg qd; 28 male and female outpatients, score 1-2 on 8 point COVID-19 ordinal scale (control group 20%). The procedure: The primary outcome was the rate of hospitalization at day 14.
28 subjects were assigned to HC-1119 treatment 80 mg qd. The other 28 subjects received standard treatment+HC-1119 placebo. Following 14 days of treatment, 1% of the subjects in the HC-1119 were hospitalized compared to 20% of the subjects in the control group were hospitalzied.

Assay [10] deals with fetal pulmonary surfactant production. Particulars: rabbits, males and females; cited from earlier work.
In assay [11] the test system is SARS-CoV-2. The experiment in a line: Example 5: double-blinded placebo controlled prophylaxis study in male health care workers, SARS-CoV-2 test at day 28. In kind it is in vivo, human. To be noted: 0.25 mg/day oral.
For assay [12], the system named is SARS-CoV-2. In kind it is in vivo. Particulars: 1 admitted patient (standard care average 3.6).
Assay [13] concerns SARS-CoV-2. The experiment in a line: Example 7: double-blinded placebo controlled study in hospitalized male SARS-CoV-2 patients, survival. In kind it is in vivo, human. Particulars: following 15 days of treatment; injection 300 mg; 60 hospitalized male patients (control group 64%). The procedure:
60 subjects were given an injection of cyproterone acetate (300 mg). The other 53 subjects received standard treatment. Following 15 days of treatment, 84% of the subjects in the cyproterone acetate survived while 64% of the control group survived.

For the compound `N[C@@H](Cc1cc(I)c(Oc2ccc(O)c(I)c2)c(I)c1)C(=O)O` [thyroid hormone T3], the furin expression entry in assay [1] is reported as “up-regulated”.

Take `CC(C)C(=O)Nc1ccc([N+](=O)[O-])c(C(F)(F)F)c1` [flutamide]: the “subjects tested positive for SARS-CoV-2” value in assay [2] came out at 1 subject.

For the compound `CNC(=O)c1ccc(N2C(=S)N(c3ccc(C#N)c(C(F)(F)F)c3)C(=O)C2(C)C)cc1F` [enzalutamide], the subjects survived in assay [3] is given as 20%.

Regarding `C=C(C)[C@@H]1CCC(C)=C[C@H]1c1c(O)cc(CCCCC)cc1O` [cannabidiol], the “subjects tested positive for SARS-CoV-2” value in [4] is recorded as 2 subjects.

For the compound `CC1(C)NC(=O)N(c2ccc([N+](=O)[O-])c(C(F)(F)F)c2)C1=O` [nilutamide], the “BCRSS score of admitted patients” value in assay [5] is given as 1.3.

For the compound `[2H]C([2H])([2H])NC(=O)c1ccc(N2C(=S)N(c3ccc(C#N)c(C(F)(F)F)c3)C(=O)C2(C)C)cc1F` [HC-1119], the figures for the subjects survived in assay [6], in assay [7] and in [8] were 96.3%, 91.8% and 72%, respectively. Moreover, the subjects hospitalized in assay [9] was 1%.

Turning to `C[C@]12CCC(=O)C[C@@H]1CC[C@@H]1[C@@H]2CC[C@]2(C)[C@@H](O)CC[C@@H]12` [dihydrotestosterone], the “effect on fetal pulmonary surfactant production” value in assay [10] is recorded as “inhibit fetal pulmonary surfactant production”.

Consider `C[C@]12C=CC(=O)N[C@@H]1CC[C@@H]1[C@@H]2CC[C@]2(C)[C@@H](C(=O)Nc3cc(C(F)(F)F)ccc3C(F)(F)F)CC[C@@H]12` [dutasteride], for which the “subjects tested positive for SARS-CoV-2 (percent)” value in assay [11] (68 male health care workers (placebo 17%)) was found to be 4.4%. Further, the “subjects tested positive for SARS-CoV-2 (number)” value in assay [11] (of 68 male health care workers negative at baseline (placebo 9 of 53)) is on record as 3 subject.

With `CC(O)c1cc(C(=O)N[C@@H](C)Cn2ccc(-c3ccc(C#N)c(Cl)c3)n2)[nH]n1` (some centres unmarked) [darolutamide], the “BCRSS score of the admitted patient” value in assay [12] is given as 2.

For the compound `CC(=O)O[C@]1(C(C)=O)CC[C@H]2[C@@H]3C=C(Cl)C4=CC(=O)[C@@H]5C[C@@H]5[C@]4(C)[C@H]3CC[C@@]21C` [cyproterone acetate], the subjects survived in assay [13] worked out at 84%.
